According to patent publication US20260115185A1, “QUINOLINE DERIVATIVES WHICH ACT AS KAPPA-OPIOID RECEPTOR ANTAGONISTS” (The Scripps Research Institute, priority 2023, published 2026):

Experiments:
[1] = molecular target: T1, mu opioid receptor (MOR) (Homo sapiens, UniProt P35372); assay: OPRMu1 Discover X β-arrestin Assay, antagonist mode (U2OS cells, DAMGO EC80 challenge); format: cell-based
T1 construct: host or cells: U2OS (Discover X OPRMu1-U2OS, PathHunter)
Summary of the method: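 PathHunter U2OS cells with β-gal fragment-complementation readout for β-arrestin recruitment to OPRMu1. Cells were preincubated with compound (10-point, 1:3 series from nominal 10 micromolar) for 30 min at 37 °C, then challenged with 303 nM DAMGO (EC80) for 3 h. Luminescence gave percent inhibition.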

[2] = molecular target: T2, kappa opioid receptor (KOR) (Homo sapiens, UniProt P41145); assay: OPRKappa 1 Tango B-Arrestin Assay, antagonist mode (Tango OPRK1-bla U2OS cells, U50488 EC80 challenge); format: cell-based; settings: for Selectivity (MOR/KOR): Kappa selectivity, MOR IC50 / KOR IC50; for IC50: antagonist mode, Tango OPRK1-bla U2OS cells, 6 nM U50488 challenge
T2 construct: host or cells: U2OS (Tango OPRK1-bla U2OS)
Summary of the method: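 Tango OPRK1-bla U2OS cells, β-arrestin recruitment read as β-lactamase FRET (CCF4-AM, 460/590 nm emission). Compounds, 10-point 1:3 series from nominal 10 µM in quadruplicate, preincubated 30 min at 37 °C, then challenged with U50488 at 6 nM final (EC80) for 4 h; percent inhibition from median ratio.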

T2 sequence (P41145 whole entry): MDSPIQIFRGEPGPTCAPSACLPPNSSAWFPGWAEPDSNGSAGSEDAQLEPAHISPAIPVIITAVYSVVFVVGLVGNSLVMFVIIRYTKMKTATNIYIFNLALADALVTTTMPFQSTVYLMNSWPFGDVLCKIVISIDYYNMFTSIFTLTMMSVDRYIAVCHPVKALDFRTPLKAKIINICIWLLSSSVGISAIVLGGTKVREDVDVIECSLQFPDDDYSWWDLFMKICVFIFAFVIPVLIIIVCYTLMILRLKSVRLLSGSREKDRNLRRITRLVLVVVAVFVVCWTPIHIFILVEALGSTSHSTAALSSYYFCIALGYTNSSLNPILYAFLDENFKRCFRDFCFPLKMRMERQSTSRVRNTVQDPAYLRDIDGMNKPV
T1 sequence (P35372 whole entry): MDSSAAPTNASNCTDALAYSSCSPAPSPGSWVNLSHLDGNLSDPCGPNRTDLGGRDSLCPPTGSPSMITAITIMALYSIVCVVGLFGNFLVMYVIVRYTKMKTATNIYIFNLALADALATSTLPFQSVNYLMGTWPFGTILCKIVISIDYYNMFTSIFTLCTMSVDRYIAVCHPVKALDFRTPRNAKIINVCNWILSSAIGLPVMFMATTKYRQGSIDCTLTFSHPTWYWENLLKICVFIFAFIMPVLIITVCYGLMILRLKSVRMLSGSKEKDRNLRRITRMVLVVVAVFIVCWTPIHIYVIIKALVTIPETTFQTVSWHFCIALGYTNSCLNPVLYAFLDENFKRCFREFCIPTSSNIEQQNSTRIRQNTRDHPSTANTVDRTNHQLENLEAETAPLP

CCc1cc(F)c2nc(N3CCN(C(=O)CCN(C)C)C[C@H]3C)c(-c3nc(C)no3)c(C)c2c1 [Compound 43]
IC50 [1]: > 1000 nM | Selectivity (MOR/KOR) [2]: ++ (between 10- and 100-fold selectivity) | IC50 [2]: 10 to 100 nM

CCc1cc(F)c2nc(N3CC[C@@H](N[C@@H]4CCCOC4)C[C@H]3C)c(-c3ccn(C)n3)c(C)c2c1 [Compound 119]
IC50 [1]: 100 to 1000 nM | Selectivity (MOR/KOR) [2]: ++++ (more than 1000-fold selectivity over MOR) | IC50 [2]: < 1 nM

CCc1cc(C#N)c2nc(N3CCC(N[C@H]4CCOC[C@@H]4F)CC3)c(-c3ccn(C)n3)c(C)c2c1 [Compound 77]
IC50 [1]: 100 to 1000 nM | Selectivity (MOR/KOR) [2]: +++ (between 100- to 1000-fold selective) | IC50 [2]: < 1 nM

CCc1cc(-c2ccnn2C)c2nc(N3CCC(N[C@H]4CCOC[C@@H]4F)CC3)c(-c3ccn(C)n3)c(C)c2c1 [Compound 9, 1-(6-ethyl-4-methyl-3-(1-methyl-1H-pyrazol-3-yl)-8-(1-methyl-1H-pyrazol-5-yl)quinolin-2-yl)-N-((3R,4S)-3-fluorotetrahydro-2H-pyran-4-yl)piperidin-4-amine]
IC50 [1]: 100 to 1000 nM | Selectivity (MOR/KOR) [2]: +++ (between 100- to 1000-fold selective) | IC50 [2]: < 1 nM

CCc1cc(F)c2nc(N3CCN(C(=O)[C@H](Cc4ccccc4)N(C)C)C[C@H]3C)c(-c3nc(C)no3)c(C)c2c1 [Compound 52]
IC50 [1]: > 1000 nM | Selectivity (MOR/KOR) [2]: ++ (between 10- and 100-fold selectivity) | IC50 [2]: ≥ 100 nM

CCc1cc(F)c2nc(N3CCN(C(=O)[C@@H]4CCCN4C)C[C@H]3C)c(-c3nc(C)no3)c(C)c2c1 [Compound 46]
IC50 [1]: > 1000 nM | Selectivity (MOR/KOR) [2]: +++ (between 100- to 1000-fold selective) | IC50 [2]: 10 to 100 nM

CCc1cc(F)c2nc(N3CC[C@H](N[C@@H]4CCOC4)C[C@H]3C)c(-c3cc(C)no3)c(C)c2c1 [Compound 140]
IC50 [1]: 100 to 1000 nM | Selectivity (MOR/KOR) [2]: +++ (between 100- to 1000-fold selective) | IC50 [2]: < 1 nM

CCc1cc(F)c2nc(N3CCN(C(=O)[C@H](CO)N(C)C)C[C@H]3C)c(-c3cc(C)no3)c(C)c2c1 [Compound 168]
IC50 [1]: > 1000 nM | Selectivity (MOR/KOR) [2]: +++ (between 100- to 1000-fold selective) | IC50 [2]: 1 to 10 nM

CCc1cc(F)c2nc(N3CCN(C(=O)CN4CCC(F)(F)CC4)C[C@H]3C)c(-c3nc(C)no3)c(C)c2c1 [Compound 156]
IC50 [1]: 100 to 1000 nM | Selectivity (MOR/KOR) [2]: ++ (between 10- and 100-fold selectivity) | IC50 [2]: 1 to 10 nM

CCc1cc(-c2ccn(C)n2)c2nc(N3CCC(N[C@H]4CCOC4)CC3)c(-c3ccn(C)n3)c(C)c2c1 [Compound 99]
IC50 [1]: > 1000 nM | Selectivity (MOR/KOR) [2]: ++++ (more than 1000-fold selectivity over MOR) | IC50 [2]: < 1 nM

CCc1cc(F)c2nc(N3CCN(CC4CC(F)(F)C4)C[C@H]3C)c(-c3nc(C)no3)c(C)c2c1 [Compound 59, (R)-5-(2-(4-((3,3-difluorocyclobutyl)methyl)-2-methylpiperazin-1-yl)-6-ethyl-8-fluoro-4-methylquinolin-3-yl)-3-methyl-1,2,4-oxadiazole]
IC50 [1]: > 1000 nM | Selectivity (MOR/KOR) [2]: +++ (between 100- to 1000-fold selective) | IC50 [2]: 10 to 100 nM

CCc1cc(F)c2nc(N3CCN(C(=O)[C@@H]4CCCN4C)C[C@H]3C)c(-c3ccn(C)n3)c(C)c2c1 [Compound 175]
IC50 [1]: > 1000 nM | Selectivity (MOR/KOR) [2]: +++ (between 100- to 1000-fold selective) | IC50 [2]: 10 to 100 nM

CCc1cc(F)c2nc(N3CCN(CC4CCOCC4)[C@H](C)C3)c(-c3nc(C)no3)c(C)c2c1 [Compound 39, (R)-5-(6-ethyl-8-fluoro-4-methyl-2-(3-methyl-4-((tetrahydro-2H-pyran-4-yl)methyl)piperazin-1-yl)quinolin-3-yl)-3-methyl-1,2,4-oxadiazole]
IC50 [1]: > 1000 nM | Selectivity (MOR/KOR) [2]: ++ (between 10- and 100-fold selectivity) | IC50 [2]: ≥ 100 nM

CCc1cc(F)c2nc(N3CCN(C(=O)CN4CC[C@@H](F)C4)C[C@H]3C)c(-c3nc(C)no3)c(C)c2c1 [Compound 149]
IC50 [1]: 100 to 1000 nM | Selectivity (MOR/KOR) [2]: +++ (between 100- to 1000-fold selective) | IC50 [2]: 1 to 10 nM
